The source of these data is ChEMBL document CHEMBL1201862, “PubChem BioAssay data set” (2004).

Test in all cases: NCI anticancer screen, dose series, 48 h
The test system of experiment [1] is CCRF-CEM.
Experiment [2] deals with SF-295.
Experiment [3] concerns HL-60.
Experiment [4] has as its system SK-MEL-5.
Experiment [5] concerns CAKI-1.
Experiment [6] concerns HT-29.
Experiment [7] concerns SK-OV-3.
In experiment [8] the test system is SF-539.
Experiment [9] has as its system OVCAR-3.
Experiment [10] has as its system NCI-H460.
The subject of experiment [11] is EKVX.
The subject of experiment [12] is SK-MEL-28.
Experiment [13] deals with HOP-62.
Experiment [14] concerns 786-0.
The test system of experiment [15] is HCC 2998.
Experiment [16] concerns DU-145.
Experiment [17] relates to BT-549.
Experiment [18] deals with MCF7.
Experiment [19] has as its system SF-268.
Experiment [20] relates to RPMI-8226.

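In this assay, cells in 96-well plates receive the compound at five concentrations for 48 hours. Endpoints are linearly interpolated between the surrounding concentrations. Abbreviation: GI50, concentration required for 50% inhibition of growth.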 Calls of active or inactive are those of the source. Rule as the data show it: active = GI50 up to about 1.1 µM and inactive = higher. Some results are limits rather than exact numbers.

`Cc1cc(N(CCC#N)S(=O)(=O)c2ccccc2)ccc1/C=N/c1ccc(C(=O)O)cc1`: the GI50 in [1] is 6.4 µM (inactive); in experiment [2], 29.1 µM (inactive); in [3] it was 5.21 µM (inactive); in [4], 13.8 µM (inactive); in experiment [5], 2.23 µM (inactive); in experiment [6] it was 15.7 µM (inactive). Moreover, the GI50 is 34.1 µM (inactive) in [7]; 15.2 µM (inactive) in [8]; 10.1 µM (inactive) in experiment [9]; 19.1 µM (inactive) in experiment [10]; 17.9 µM (inactive) in [11]; 15.3 µM (inactive) in experiment [12]. Also, the GI50 in experiment [13] is 31 µM (inactive); in experiment [14], 5.45 µM (inactive); in experiment [15], 16.8 µM (inactive); in [16], > 100 µM (inactive); in experiment [17], > 100 µM (inactive); in experiment [18], > 100 µM (inactive). Also, the GI50 in experiment [19] is > 41 µM (inactive).

In the case of `CCN(CC)Cc1cc(Nc2c3ccccc3nc3c2[nH]c2ccccc23)cc(CN(CC)CC)c1O`, the GI50 in experiment [2] is 1.28 µM (inactive); in [3], 2.86 µM (inactive); in [4], 1.6 µM (inactive); in experiment [5] it was 1.77 µM (inactive); in experiment [6], 0.35 µM (active); in experiment [7], 3.25 µM (inactive). The GI50 is 1.08 µM (active) in experiment [8]; 0.294 µM (active) in [10]; 1.45 µM (inactive) in [11]; 2.4 µM (inactive) in experiment [12]; 0.598 µM (active) in [13]; 0.216 µM (active) in [14]. The GI50 in experiment [15] is 0.836 µM (active); in [16] it was 1.32 µM (inactive); in experiment [17], 1.41 µM (inactive); in experiment [18], 1.34 µM (inactive); in [19], 0.813 µM (active).

`C#CC[C@@H]1C(=O)N(Cc2ccc(OC)cc2)[C@@H](C(C)C)C(=O)N1Cc1ccc(OC)cc1`: the GI50 in [1] was 0.458 µM (active); in [2], 54.2 µM (inactive); in experiment [3] it was 3.66 µM (inactive); in experiment [4] it was 15.6 µM (inactive); in experiment [5] it was > 100 µM (inactive); in experiment [6], 26.8 µM (inactive). For the same compound, the GI50 is > 100 µM (inactive) in [7]; 29.2 µM (inactive) in [8]; 51.4 µM (inactive) in [9]; 30.7 µM (inactive) in [10]; 28.4 µM (inactive) in experiment [11]; 84.7 µM (inactive) in experiment [12]. Also, the GI50 is > 100 µM (inactive) in [13]; 44.9 µM (inactive) in experiment [14]; 47.1 µM (inactive) in experiment [15]; 29.5 µM (inactive) in experiment [16]; 29.4 µM (inactive) in experiment [17]; 19.8 µM (inactive) in experiment [18]. Further, the GI50 in experiment [19] is 82.2 µM (inactive).

For `Cc1cccc(NC(=S)Nc2ccccc2Cl)n1`, the GI50 was > 100 µM (inactive) in [1]; 32 µM (inactive) in experiment [2]; > 100 µM (inactive) in experiment [3]; 27.9 µM (inactive) in experiment [4]; 27.4 µM (inactive) in experiment [5]; > 100 µM (inactive) in experiment [6]. The GI50 in experiment [7] was 25.8 µM (inactive); in experiment [20] it was > 100 µM (inactive); in experiment [8], 32.1 µM (inactive); in [9] it was > 100 µM (inactive); in experiment [10], 59.3 µM (inactive); in [11], 21.9 µM (inactive). In addition, the GI50 in experiment [12] was > 100 µM (inactive); in experiment [13], 22.3 µM (inactive); in [14], 34.3 µM (inactive); in experiment [16] it was > 100 µM (inactive); in [17], 59.7 µM (inactive); in experiment [18], > 100 µM (inactive). For the same compound, in [19], the GI50 is 28.7 µM (inactive).

For the compound `Cc1nc2ccc(F)cc2c2c1CCN2c1ccc(Cl)cc1`, the GI50 in experiment [1] is 5.82 µM (inactive); in experiment [2], 4.33 µM (inactive); in experiment [3], 2.01 µM (inactive); in experiment [4], 3.56 µM (inactive); in experiment [5] it was 13.9 µM (inactive); in experiment [6] it was 3.61 µM (inactive). Also, the GI50 was 29 µM (inactive) in experiment [7]; 10.5 µM (inactive) in [8]; 7.96 µM (inactive) in experiment [9]; 7.38 µM (inactive) in experiment [10]; 12.2 µM (inactive) in experiment [12]; 13.1 µM (inactive) in [13]. Besides, the GI50 in [14] was 7.66 µM (inactive); in experiment [15] it was 13.7 µM (inactive); in experiment [16] it was 29.4 µM (inactive); in experiment [17], 19.5 µM (inactive); in experiment [18], 11.6 µM (inactive); in [19], 30.8 µM (inactive).

Turning to `CCOC(=O)c1cn2c(n1)sc1cc(F)ccc12`, the GI50 is > 100 µM (inactive) in experiment [1]; 74.8 µM (inactive) in experiment [2]; > 100 µM (inactive) in experiment [4]; > 100 µM (inactive) in experiment [5]; 82.8 µM (inactive) in experiment [6]; > 100 µM (inactive) in experiment [7]. For the same compound, the GI50 was > 100 µM (inactive) in [20]; 99.5 µM (inactive) in experiment [8]; > 100 µM (inactive) in experiment [9]; > 100 µM (inactive) in experiment [10]; > 100 µM (inactive) in [11]; > 100 µM (inactive) in experiment [12]. Moreover, the GI50 was 29.5 µM (inactive) in [13]; 52.8 µM (inactive) in [14]; > 100 µM (inactive) in [15]; > 100 µM (inactive) in [16]; 77.6 µM (inactive) in experiment [17]; 46.9 µM (inactive) in experiment [18]. Besides, the GI50 in experiment [19] was 82.2 µM (inactive).

For the compound `O=c1c2cccnc2cc(-c2ccccc2)n1CCO`, the GI50 in [1], in experiment [2], in experiment [3], in experiment [4], in [6] and in experiment [7] was > 100 µM (inactive) throughout. The GI50 in experiment [20], in experiment [9], in experiment [10], in experiment [11], in experiment [12] and in experiment [13] was > 100 µM (inactive) each time. Moreover, the GI50 in [14] was > 100 µM (inactive); in experiment [15], > 100 µM (inactive); in experiment [16] it was > 100 µM (inactive); in [17], > 100 µM (inactive); in [18] it was > 100 µM (inactive); in experiment [19] it was 59.2 µM (inactive).

On to `COC(=O)c1c(C)cccc1/C=C1/Cc2c(C)cccc2C1=O`, for which the GI50 in experiment [2] is > 100 µM (inactive); in [3], > 100 µM (inactive); in [4], 9.93 µM (inactive); in experiment [5], > 100 µM (inactive); in experiment [6] it was > 100 µM (inactive); in experiment [7], > 100 µM (inactive). Also, the GI50 in [20] is 3.44 µM (inactive); in [8], > 100 µM (inactive); in experiment [9], > 100 µM (inactive); in [10], 67.9 µM (inactive); in experiment [11], > 100 µM (inactive); in [12] it was > 100 µM (inactive). Besides, the GI50 in experiment [13] was > 100 µM (inactive); in experiment [14], 88.7 µM (inactive); in [15], > 100 µM (inactive); in [16] it was > 100 µM (inactive); in experiment [17], 28.2 µM (inactive); in experiment [18], 8.97 µM (inactive). Moreover, the GI50 in [19] is > 100 µM (inactive).

With `COc1cccc(/C=C2\S/C(=N/Nc3nc(C)c(C)s3)NC2=O)c1O`, the GI50 is > 100 µM (inactive) in [2]; 56.1 µM (inactive) in experiment [3]; 50.2 µM (inactive) in experiment [4]; > 100 µM (inactive) in experiment [5]; > 100 µM (inactive) in experiment [6]; > 100 µM (inactive) in experiment [7]. Moreover, the GI50 is > 100 µM (inactive) in experiment [8]; 87.1 µM (inactive) in experiment [9]; > 100 µM (inactive) in [10]; 37 µM (inactive) in experiment [11]; > 100 µM (inactive) in experiment [12]; > 100 µM (inactive) in [13]. In addition, the GI50 was > 100 µM (inactive) in experiment [14]; 61.5 µM (inactive) in [15]; > 100 µM (inactive) in experiment [16]; > 100 µM (inactive) in experiment [17]; > 100 µM (inactive) in [18]; > 100 µM (inactive) in experiment [19].

On to `C=CC1(C)CCC2C(=CCC3C(C)(COC4OC(C(=O)O)C(O)C(O)C4O)C(O)CCC23C)C1.C=CC1(C)CCC2C(=CCC3C2(C)CC(O)C(O)C3(C)COC2OC(C(=O)O)C(O)C(O)C2O)C1` (configuration not stated), for which the GI50 in experiment [1] is 19.4 µM (inactive); in experiment [2], 70.1 µM (inactive); in experiment [4], > 100 µM (inactive); in [5] it was > 100 µM (inactive); in experiment [6], > 100 µM (inactive); in [7] it was > 100 µM (inactive). The GI50 in experiment [20], in [8], in experiment [9], in experiment [10], in [11] and in experiment [12] was > 100 µM (inactive) each time. Further, the GI50 in experiment [13] is > 100 µM (inactive); in [14], > 100 µM (inactive); in [15], > 100 µM (inactive); in experiment [16], > 100 µM (inactive); in experiment [17], > 100 µM (inactive); in [18], 71 µM (inactive). In addition, in [19], the GI50 is > 100 µM (inactive).

For the compound `S=c1nc2[nH]c3ccc(Br)cc3c2n[nH]1`, the GI50 in experiment [3] was 12 µM (inactive); in experiment [4], 36.4 µM (inactive); in [5], 69.8 µM (inactive); in experiment [6], 35 µM (inactive); in experiment [7], > 100 µM (inactive); in experiment [20] it was 37.1 µM (inactive). The GI50 in experiment [8] was > 100 µM (inactive); in experiment [9] it was 41 µM (inactive); in experiment [10], 63.1 µM (inactive); in experiment [11], 14.2 µM (inactive); in experiment [12], > 100 µM (inactive); in experiment [14] it was 35.2 µM (inactive). Also, the GI50 in experiment [15] is > 100 µM (inactive); in experiment [16], 85.3 µM (inactive); in experiment [17], 50.2 µM (inactive); in experiment [18], 19 µM (inactive); in [19], 27.9 µM (inactive).
